From patent publication US20250275953A1, “VODOBATINIB FOR REDUCING PROGRESSION OF PARKINSON'S DISEASE” (Sun Pharma Advanced Research Company Ltd., priority 2022, published 2025)
Entries after “also recorded” stand apart in the source; their conditions may differ.

Columns and labels:
[1] = target: Abl (T315I) (Homo sapiens, UniProt P00519, T315I); test: Biochemical kinase assay, gatekeeper mutant Abl
From the text: Conventional biochemical kinase assays, using radioactivity and fluorescence as readouts, were used to derive half maximal-inhibitory concentrations (IC50) values.

[2] = Safety and tolerability, healthy volunteers; type: in vivo, human; conditions: for number of treatment-related TEAEs: four subjects
Protocol: The subjects were further assessed for safety. Accordingly, hematology, chemistry, urinalysis testing and vital signs examination (seated systolic [SBP] and diastolic blood pressure [DBP], pulse, respiration rate, and temperature) were performed at screening, check-in and at the exit visit prior to discharge from the study. Seated vital signs were checked after 1 h, 4 h, and 12 h of the first dose on Day 1. 12-lead ECGs were recorded on Day 1 and Day 7 in triplicate 0.75 h, 0.5 h and 0.25 h prior to the dose and after 0.5 h, 1 h, 2 h, 3 h, 4 h, 8 h, 12 h, and 24 h of the dose with subjects in supine position. Lumbar catheter was placed on day 7 and the vital signs were checked after 1 h, 4 h, and 12 h of the dose. Vital signs were examined within 15 minutes prior to the collection of samples for PK studies.
All adverse event (AE)s were captured and documented throughout the study from the time of ICF signing to 7 days after the last dose of study medication or early termination.
The AEs were coded according to MedDRA® and grouped by Preferred Terms (PT) and System Organ Class (SOC). All AEs were classified and graded according to CTCAE Version 4.03 or later. Incidence (n) and percentage (%) was reported for coded TEAEs by cohort for the SAF Population. Subjects with more than one of the same PTs within an SOC were counted only once.
Categorical ECG analysis included the number and percentage of individuals with abnormal ECG findings and those with: absolute QTcF values >450 milliseconds, absolute QTcF values >480 milliseconds, absolute QTcF values >500 milliseconds, change from baseline >30 msec, and change from baseline >60 msec. No subject reported clinically significant abnormalities. […] No AEs related to ECG parameters were reported in any group during the study.
Forty-one healthy adult male volunteers aged 18 to 45 with body mass indexes (BMI)≥18 to ≤30 Kg/m^2 and total body weight >50 kg (110 lb) were screened in order to enroll 19 subjects with an average age of 34.2 years (range 21.5-45.6 years) into this study Six participants were randomly assigned to the 48 and 192 mg cohorts, and seven participants were assigned to the 384 mg cohort. After an overnight fast, participants received once daily doses of vodobatinib as capsules for 7 days. Serial PK blood samples to measure vodobatinib plasma concentrations were collected at pre-dose and at 0.25, 0.5, 1, 1.5, 2, 2.5, 3, 4, 6, 8, 12, 16 and 24 h post-dose after the first dose on Day 1 and the last dose on day 7. Additional PK samples prior to the morning doses were taken on Days 3-6. On the morning of Day 7, prior to dosing, an indwelling intrathecal catheter was inserted in the lumbar region (L3-L5). Serial CSF samples were collected through the catheter connected via peristaltic pump to a fraction collector. At each designated CSF collection time point, 8 mL of CSF was collected at a flow rate of 0.5 mL/min over a 16-min period at pre-dose, and 0.5, 1.0, 1.5, 2, 2.5, 3, 4, 6, 8, 12 and 24 h post-dose. The first 2 mL of CSF was discarded, and the remaining 6 mL was used for the vodobatinib assay. The occurrence of treatment-emergent adverse events (TEAEs) and serious AEs (SAEs) reported through the completion of study were collected. Clinical laboratory parameters, vital signs and physical examination data and electrocardiogram (ECG) were collected and evaluated relative to baseline values.

[3] = Total (N = 19), listed as vodobatinib
[4] = all cohorts, listed as vodobatinib

Cc1ccc(C(=O)NNC(=O)c2c(C)cccc2Cl)cc1C#Cc1cnc2ccccc2c1 [N′-(2-chloro-6-methylbenzoyl)-4-methyl-3-[2-(3-quinolyl)ethynyl]-benzohydrazide]
IC50 [1]: 8 nM
IMP Related TEAEs: Abdominal Distension, N (%) ([2]; 48 mg (N = 6)): 0
IMP Related TEAEs: Gastrointestinal Disorders, N (%) ([2]; 48 mg (N = 6)): 0
IMP Related TEAEs: General Disorders and Administration Site Conditions, N (%) ([2]; 48 mg (N = 6)): 0
IMP Related TEAEs: Headache, N (%) ([2]; 48 mg (N = 6)): 1 (16.7)
IMP Related TEAEs: Musculoskeletal and Connective Tissue Disorders, N (%) ([2]; 48 mg (N = 6)): 0
IMP Related TEAEs: Myalgia, N (%) ([2]; 48 mg (N = 6)): 0
IMP Related TEAEs: Nausea, N (%) ([2]; 48 mg (N = 6)): 0
IMP Related TEAEs: Nervous System Disorders, N (%) ([2]; 48 mg (N = 6)): 1 (16.7)
IMP Related TEAEs: Pain, N (%) ([2]; 48 mg (N = 6)): 0
IMP Related TEAEs: Subjects with at least one AE, N (%) ([2]; 48 mg (N = 6)): 1 (16.7)
IMP Related TEAEs: Subjects with more than one AE, N (%) ([2]; 48 mg (N = 6)): 0
Number of subjects with at least one TEAE ([2]; 48 mg (N = 6)): 4
Study Drug Related TEAEs, subjects ([2]; 48 mg (N = 6)): 1
Study Drug Withdrawn, subjects ([2]; 48 mg (N = 6)): 0
TEAEs Certainly, subjects ([2]; 48 mg (N = 6)): 0
TEAEs Mild, subjects ([2]; 48 mg (N = 6)): 4
TEAEs Moderate, subjects ([2]; 48 mg (N = 6)): 1
TEAEs None (row before Study Drug Withdrawn), subjects ([2]; 48 mg (N = 6)): 4
TEAEs Possibly, subjects ([2]; 48 mg (N = 6)): 1
TEAEs Probably, subjects ([2]; 48 mg (N = 6)): 0
TEAEs Unlikely, subjects ([2]; 48 mg (N = 6)): 0
TEAEs Unrelated, subjects ([2]; 48 mg (N = 6)): 4
number of TEAEs ([2]; 48 mg (N = 6)): 9
IMP Related TEAEs: Abdominal Distension, N (%) ([2]; 192 mg (N = 6)): 0
IMP Related TEAEs: Gastrointestinal Disorders, N (%) ([2]; 192 mg (N = 6)): 1 (16.7)
IMP Related TEAEs: General Disorders and Administration Site Conditions, N (%) ([2]; 192 mg (N = 6)): 0
IMP Related TEAEs: Headache, N (%) ([2]; 192 mg (N = 6)): 1 (16.7)
IMP Related TEAEs: Musculoskeletal and Connective Tissue Disorders, N (%) ([2]; 192 mg (N = 6)): 1 (16.7)
IMP Related TEAEs: Myalgia, N (%) ([2]; 192 mg (N = 6)): 1 (16.7)
IMP Related TEAEs: Nausea, N (%) ([2]; 192 mg (N = 6)): 1 (16.7)
IMP Related TEAEs: Nervous System Disorders, N (%) ([2]; 192 mg (N = 6)): 1 (16.7)
IMP Related TEAEs: Pain, N (%) ([2]; 192 mg (N = 6)): 0
IMP Related TEAEs: Subjects with at least one AE, N (%) ([2]; 192 mg (N = 6)): 1 (16.7)
IMP Related TEAEs: Subjects with more than one AE, N (%) ([2]; 192 mg (N = 6)): 1 (16.7)
Number of subjects with at least one TEAE ([2]; 192 mg (N = 6)): 4
Study Drug Related TEAEs, subjects ([2]; 192 mg (N = 6)): 1
Study Drug Withdrawn, subjects ([2]; 192 mg (N = 6)): 0
TEAEs Certainly, subjects ([2]; 192 mg (N = 6)): 0
TEAEs Mild, subjects ([2]; 192 mg (N = 6)): 4
TEAEs Moderate, subjects ([2]; 192 mg (N = 6)): 2
TEAEs None (row before Study Drug Withdrawn), subjects ([2]; 192 mg (N = 6)): 4
TEAEs Possibly, subjects ([2]; 192 mg (N = 6)): 1
TEAEs Probably, subjects ([2]; 192 mg (N = 6)): 0
TEAEs Unlikely, subjects ([2]; 192 mg (N = 6)): 1
TEAEs Unrelated, subjects ([2]; 192 mg (N = 6)): 3
number of TEAEs ([2]; 192 mg (N = 6)): 10
IMP Related TEAEs: Abdominal Distension, N (%) ([2]; 384 mg (N = 7)): 1 (14.3)
IMP Related TEAEs: Gastrointestinal Disorders, N (%) ([2]; 384 mg (N = 7)): 1 (14.3)
IMP Related TEAEs: General Disorders and Administration Site Conditions, N (%) ([2]; 384 mg (N = 7)): 1 (14.3)
IMP Related TEAEs: Headache, N (%) ([2]; 384 mg (N = 7)): 1 (14.3)
IMP Related TEAEs: Musculoskeletal and Connective Tissue Disorders, N (%) ([2]; 384 mg (N = 7)): 0
IMP Related TEAEs: Myalgia, N (%) ([2]; 384 mg (N = 7)): 0
IMP Related TEAEs: Nausea, N (%) ([2]; 384 mg (N = 7)): 1 (14.3)
IMP Related TEAEs: Nervous System Disorders, N (%) ([2]; 384 mg (N = 7)): 1 (14.3)
IMP Related TEAEs: Pain, N (%) ([2]; 384 mg (N = 7)): 1 (14.3)
IMP Related TEAEs: Subjects with at least one AE, N (%) ([2]; 384 mg (N = 7)): 2 (28.6)
IMP Related TEAEs: Subjects with more than one AE, N (%) ([2]; 384 mg (N = 7)): 1 (14.3)
Number of subjects with at least one TEAE ([2]; 384 mg (N = 7)): 3
Study Drug Related TEAEs, subjects ([2]; 384 mg (N = 7)): 2
Study Drug Withdrawn, subjects ([2]; 384 mg (N = 7)): 0
TEAEs Certainly, subjects ([2]; 384 mg (N = 7)): 0
TEAEs Mild, subjects ([2]; 384 mg (N = 7)): 3
TEAEs Moderate, subjects ([2]; 384 mg (N = 7)): 1
TEAEs None (row before Study Drug Withdrawn), subjects ([2]; 384 mg (N = 7)): 3
TEAEs Possibly, subjects ([2]; 384 mg (N = 7)): 2
TEAEs Probably, subjects ([2]; 384 mg (N = 7)): 1
TEAEs Unlikely, subjects ([2]; 384 mg (N = 7)): 3
TEAEs Unrelated, subjects ([2]; 384 mg (N = 7)): 0
number of TEAEs ([2]; 384 mg (N = 7)): 9
subjects with absolute QTcF >450 ms ([2]; 48, 192, 384 mg): None of the subjects
Study Drug Withdrawn, subjects ([2]; Total (N = 19)): 0
TEAEs Certainly, subjects ([2]; Total (N = 19)): 0
TEAEs Mild, subjects ([2]; Total (N = 19)): 11
TEAEs Moderate, subjects ([2]; Total (N = 19)): 4
TEAEs None (row before Study Drug Withdrawn), subjects ([2]; Total (N = 19)): 11
TEAEs Possibly, subjects ([2]; Total (N = 19)): 4
TEAEs Probably, subjects ([2]; Total (N = 19)): 1
TEAEs Unlikely, subjects ([2]; Total (N = 19)): 4
TEAEs Unrelated, subjects ([2]; Total (N = 19)): 7
number of TEAEs ([2]; Total (N = 19)): 28
Number of subjects with at least one TEAE [2, 3]: Eleven
Study Drug Related TEAEs, subjects [2, 3]: Four
SAEs ([2]; all cohorts): No subject experienced an SAE; also recorded: no SAEs
TEAE abdominal distention ([2]; all cohorts): 10.5%
TEAE back pain ([2]; all cohorts): 10.5%
TEAE headache and nausea ([2]; all cohorts): 15.8%
TEAE post lumbar puncture syndrome ([2]; all cohorts): 42.1%
findings in clinical laboratory results, vital signs, ECGs, physical examinations ([2]; all cohorts): no clinically relevant or significant findings
subjects with TEAEs unlikely related to study treatment ([2]; all cohorts): 21%
subjects with TEAEs unrelated to study treatment ([2]; all cohorts): 37%
subjects with mild TEAEs ([2]; all cohorts): 58%
subjects with moderate TEAEs ([2]; all cohorts): 21%
subjects reporting TEAEs ([2]; all cohorts (N = 19)): 58%
number of treatment-related TEAEs ([2]; all cohorts): 7
number of treatment-related TEAEs [2, 4]: seven
SAEs [2, 4]: no SAEs
